Assay results: US20050222198A1, “Imidazo[4,5-c]pyridine compounds and methods of antiviral treatment” (priority 2003, published 2005)

How the values were obtained:
Format in all cases: cell-based
HCV replicon = assay: Anti-HCV assay/Replicon assay 2 (luciferase); conditions: Hepatitis C virus, 72 h, 3 days
Experimental: • HCV Replicon Media • DMEM w/High Glucose (or MEM) • 1× Glutamine • 1× Sodium Pyruvate • 10% Heat Inactivated FBS • 1× Antibiotics Cell Culture Preparation • 1. Unthaw frozen stock in 10-12 mls of Media • 2. Allow cells to attach before adding G418 (4-6 hrs) • 3. Add G418 for a final concentration of 200 ug/mL (higher amounts are possible but cells grow slowly) • 4. Split cells 1:4 to 1:6 for optimal growth • 5. In-house replicon seems to maintain Luciferase signal for ˜20 passages HCV Replicon Assay • 1. Dilute compounds in 100 uL of HCV Replicon Media (without G418). If compounds are diluted in DMSO add DMSO to media (Final DMSO concentration should be <1%) • 2. Once cells have reached 80-90% confluency, trypsinize with 1× Trypsin • 3. […] These cells tend to clump if over trypsinized • 4. For 96 well format add 6,000-8,000 cells per well (G418 is withheld during compound testing) • 5. Incubate for 3 days at 37° C. Cells should be very close to confluent. • 6. Remove media and wash cells with 1×PBS • 7. Remove PBS and add 100 μL of 1×Promega Lysis Buffer • 8. Incubate cells at Room Temperature for 5-20 minutes • 9. Add 100 μL of room temperature Luciferase Substrate Solution (Promega) to Microfluor Black Plate (VWR) • 10. Thoroughly Mix Cell lysate (pipet up and down) before adding to Luciferase substrate • 11. Add 75 μL of lysate to the Luciferase substrate solution • 12. Read Plate On Top Count (FusionLucB program˜5 second read) • 13. Left over lysate can be frozen and used for later analysis Determination of Cytostatic Effect on MDBK Cells

[1] = HCV CC50 assay protocol (MTT); conditions: HCV replicon cells
Experimental: (§1) • HCV Replicon Media • DMEM w/High Glucose (or MEM) • 1×Glutamine • 1× Sodium Pyruvate • 10% Heat Inactivated FBS • 1× Antibiotics Cell Culture Preparation • 1. Unthaw frozen stock in 10-12 mls of Media • 2. Allow cells to attach before adding G418 (4-6 hrs) • 3. Add G418 for a final concentration of 200 ug/ml (higher amounts are possible but cells grow slowly) • 4. Split cells 1:4 to 1:6 for optimal growth • 5. In-house replicon seems to maintain Luciferase signal for ˜20 passages HCV Replicon Assay • 1 Dilute compounds in 100 uL of HCV Replicon Media (without G418). If compounds are diluted in DMSO add DMSO to media (Final DMSO concentration should be <1%) • 2. Once cells have reached 80-90% confluency, trypsinize with 1×Trypsin • 3. […] These cells tend to clump if over trypsinized • 4. For 96 well format add 6,000-8,000 cells per well (G418 is withheld during compound testing) • 5. Incubate for 3 days at 37° C. Cells should be very close to confluent. • 6. Remove media and add 200 μL of a 0.2 mg/mL MTT solution prepared in media. • 7. Incubate for 1.5 hours to 2 hours. • 8. Remove media and add 150 μL of DMSO • 9. Mix and incubate for 5 mins at room temperature • 10. Read plate at 530 nm in the plate reader. Results

HCV replicon cells = assay: HCV CC50 assay protocol (MTT); conditions: 3 days
Experimental: as §1

For `Fc1ccccc1-c1nc2ccn(Cc3cc(-c4ccc(Cl)cc4)no3)cc-2n1` [Example 2, 5((3-(4-chlorophenyl)isoxazol-5-yl)methyl)-2-(2-fluorophenyl)-5H-imidazo[4,5-c]pyridine], which EC50 (HCV replicon) is on record?
The EC50 was 0.01 µM.

And the CC50 at 3 days [1]?
Its CC50 at 3 days is 26 µM.

Which EC50 (HCV replicon) does the source give for `Fc1cccc(-c2nc3ccn(Cc4ccc(OC(F)(F)F)cc4)cc-3n2)c1F` [Example 3A, 5-(4-(trifluoromethoxy)benzyl)-2-(2,3-difluorophenyl)-5H-imidazo[4,5-c]pyridine] here?
Its EC50 is 0.02 µM.

What about the CC50 at 3 days [1] of the same compound?
The CC50 at 3 days was 34 µM.

Which EC50 (HCV replicon) does the source give for `Fc1ccc(-c2ccc(Cn3ccc4nc(-c5cccc(F)c5F)nc-4c3)cc2)c(F)c1` [Example 4, 5-(2,4-difluoro-biphenyl)methyl-2-(2,3-difluorophenyl)-5H-imidazo[4,5-c]pyridine] here?
The EC50 was 0.01 µM.

What about the CC50 at 3 days [1] of the same compound?
Its CC50 at 3 days is 19 µM.

Which EC50 (HCV replicon) does the source give for `Fc1cccc(-c2nc3ccn(Cc4cc(-c5ccc(Cl)cc5)no4)cc-3n2)c1F` [Example 5, 5-((3-(4-chlorophenyl)isoxazol-5-yl)methyl)-2-(2,3-difluorophenyl)-5H-imidazo[4,5-c]pyridine] here?
Its EC50 is 0.0039 µM.

What about the CC50 at 3 days [1] of the same compound?
Its CC50 at 3 days is 10.8 µM.

What about the CC50 (HCV replicon cells) of the same compound?
Its CC50 is 13.4 µM.
